Experiments:
murine eIF4E (28-217) = biological target: T1, murine eIF4E (28-217) (Mus musculus, UniProt P63073); experiment: Binding affinities for eIF4E by fluorescence quenching; design: Cap - eIF4E KAS: unit not given here; details: for ΔG°: binding free energy calculated from KAS; for ΔG° / KAS: murine eIF4E (28-217); for Cap - eIF4E KAS / KAS: equilibrium association constant; for Cap - eIF4E KAS: mouse eIF4E (amino acids 28-217), 20° C.; for KAS: fluorescence quenching; for affinity for eIF4E (KAS) relative to m2^7,2′-OGpppG: fold higher than the parent ARCA; for affinity for eIF4E (KAS) of D1 relative to D2 diastereomer: fold higher than the D2 member
T1 construct: (28-217) to phosphorothioate cap analogs, as determined
Protocol: Binding affinities of S analogs for murine eIF4E were determined by fluorescence quenching. Fluorescence titration measurements were carried out on an LS-50B spectrofluorometer (Perkin Elmer Co.) in 50 mM HEPES/KOH (pH 7.2), 100 mM KCl, 0.5 mM EDTA, 1 mM DTT at 20.0±0.2° C. Aliquots of 1 μl increasing concentration of cap analogue solutions were added to 1.4 ml of […] solutions. Fluorescence intensities (excitation at 280 nm with 2.5 nm bandwidth and detection at 337 nm with 4 nm bandwidth and 290 nm cut-off filter) were corrected taking into account sample dilution and the inner filter effect. Equilibrium association constants (KAS) were determined by fitting the theoretical dependence of the fluorescence intensity on the total concentration of cap analogue to the experimental data points according to equation described previously (See A. Niedzwiecka et al., “Biophysical studies of eIF4E cap-binding protein: recognition of mRNA 5′ cap structure and synthetic fragments of eIF4G and 4E-BP1 proteins,” J. Mol. Biol., vol. 319, pp. 615-635 (2002)). The concentration of protein was fitted as a free parameter of equilibrium equation showing amount of “active” protein. The final KAS was calculated as a weighted average of three to ten independent titrations, with the weights taken as the reciprocals of the numerical standard deviations squared. Numerical nonlinear least-squares regression analysis was performed using ORGIN 6.0 (Microcal Software Inc., USA). The Gibbs free energy of binding was calculated from the KAS value according to the standard equation ΔG°=−RTlnKAS.

DcpS = biological target: T2, DcpS (Caenorhabditis elegans, UniProt G5EFS4); experiment: Enzymatic hydrolysis by C. elegans DcpS; format: biochemical; design: key: the analogs assigned as resistant remained completely undigested under the applied conditions; the analogs assigned as hydrolyzed were hydrolyzed by DcpS with efficiency comparable to the respective unmodified parent compound; details: conditions giving complete degradation of unmodified parent within 40-90 min, RP HPLC
T2 sequence (G5EFS4 1-311): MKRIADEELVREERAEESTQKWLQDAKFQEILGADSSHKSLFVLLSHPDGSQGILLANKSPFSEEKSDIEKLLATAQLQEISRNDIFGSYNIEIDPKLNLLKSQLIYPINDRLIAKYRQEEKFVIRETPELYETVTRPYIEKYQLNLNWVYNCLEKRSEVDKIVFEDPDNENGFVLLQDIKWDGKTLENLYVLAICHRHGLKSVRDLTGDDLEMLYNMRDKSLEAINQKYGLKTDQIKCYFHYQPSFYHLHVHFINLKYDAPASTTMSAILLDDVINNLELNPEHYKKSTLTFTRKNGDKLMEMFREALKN
Protocol: Human and nematode DcpS were expressed in Escherichia coli according to the procedures described previously (L. S. Cohen et al., “Nematode m7 GpppG and m3(2,2,7)GpppG decapping: activities in Ascaris embryos and characterization of C. elegans scavenger DcpS,” RNA, vol. 10, pp. 1609-1624 (2004)). Both proteins were stored at −80° C. in 20 mM Tris buffer, pH 7.5, containing 50 mM KCl, 0.2 mM EDTA, 1 mM DTT, 0.5 mM PMSF, and 20% glycerol. An appropriate cap analog at 1 mM concentration was treated with 5.0 or 7.0 μl of DcpS (from human or C. elegans, respectively) in 500 μl of 50 mM TRIS buffer, pH=7.9, containing 20 mM of MgCl2 and 60 mM of (NH4)2SO4 at 37° C. for 60-90 min. Every 15-20 min a 100 μl sample was collected from the reaction mixture and deactivated by incubation in 90° C. for 3 min. Collected samples were analyzed without further treatment by analytical RP HPLC using a linear gradient of methanol in 0.1 M KH2PO4, pH=6.0, from 0-50% within 15 min and UV-detection at 260 nm.
The new series of S-analogs were subjected to in vitro enzymatic hydrolysis catalyzed by DcpS from both human and C. elegans sources. In all experiments, the corresponding unmodified cap analog was used as a positive control, i.e., m^7GpppG for non-ARCA S-analogs and m2^7,2′-OGpppG for S-ARCAs. The amount of DcpS enzyme was optimized to provide complete degradation of the control substrate within 40-90 min. The samples collected from reaction mixtures at various time intervals were analyzed by RP HPLC (as described in Materials and Methods).
In Table 4, cap analogs at 4 μM concentration were subjected to enzymatic digestion by DcpS in conditions leading to complete degradation of the unmodified parent compound (i.e. m^7GpppG for non-ARCA S-analogs and m2^7,2′-OGpppG for ARCAs) within 40-90 min. Samples collected from reaction mixtures at various time intervals were analysed by RP HPLC with UV detection at 260 nm as described in Materials and Methods. […] The result was unchanged even if the reaction time was extended to 24 h, various amounts of enzyme were used, and composition of the reaction buffer was modified.

T1 sequence (P63073 28-217): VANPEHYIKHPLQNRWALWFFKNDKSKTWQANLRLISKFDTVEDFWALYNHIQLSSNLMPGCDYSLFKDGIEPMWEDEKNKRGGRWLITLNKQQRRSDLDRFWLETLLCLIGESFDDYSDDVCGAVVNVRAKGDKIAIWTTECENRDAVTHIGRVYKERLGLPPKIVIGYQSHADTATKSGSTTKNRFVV

CO[C@@H]1[C@H](O)[C@@H](COP(=O)(O)OP(=O)([O-])OP(=O)(O)OC[C@H]2O[C@@H](n3cnc4c(=O)[nH]c(N)nc43)[C@H](O)[C@@H]2O)O[C@H]1n1c[n+](C)c2c(O)nc(N)nc21 [m2^7,2′-OGpppG, reference compound]
ΔG° (murine eIF4E (28-217)): -39.5 kJ/mol | Cap - eIF4E KAS (murine eIF4E (28-217)): 10.8 ± 0.3 | KAS (murine eIF4E (28-217)): 10.8 ± 0.3 µM⁻¹ | Resistance to enzymatic hydrolysis by DcpS (from C. elegans) (DcpS): hydrolyzed

m2^7,2′-OGpppsG (D1) [Compound 4a]
ΔG° (murine eIF4E (28-217)): -40.8 kJ/mol | Cap - eIF4E KAS (murine eIF4E (28-217)): 34.3 ± 1.3 | KAS (murine eIF4E (28-217)): 19.2 ± 0.8 µM⁻¹ | affinity for eIF4E (KAS) relative to m2^7,2′-OGpppG (murine eIF4E (28-217)): 3 fold | Resistance to enzymatic hydrolysis by DcpS (from C. elegans) (DcpS): hydrolyzed

m2^7,2′-OGpppsG (D2) [Compound 4b]
ΔG° (murine eIF4E (28-217)): -40.3 kJ/mol | Cap - eIF4E KAS (murine eIF4E (28-217)): 12.9 ± 0.9 | KAS (murine eIF4E (28-217)): 15.0 ± 0.6 µM⁻¹ | Resistance to enzymatic hydrolysis by DcpS (from C. elegans) (DcpS): hydrolyzed

m2^7,2′-OGppspG (D1) [Compound 5a]
ΔG° (murine eIF4E (28-217)): -42.8 ± 0.084 kJ/mol | Cap - eIF4E KAS (murine eIF4E (28-217)): 42.1 ± 1.6 | KAS (murine eIF4E (28-217)): 43.1 ± 1.4 µM⁻¹ | affinity for eIF4E (KAS) of D1 relative to D2 diastereomer (murine eIF4E (28-217)): 2 fold | Resistance to enzymatic hydrolysis by DcpS (from C. elegans) (DcpS): hydrolyzed

m2^7,2′-OGppspG (D2) [Compound 5b]
ΔG° (murine eIF4E (28-217)): -40.9 kJ/mol | Cap - eIF4E KAS (murine eIF4E (28-217)): 18.3 ± 3.4 | KAS (murine eIF4E (28-217)): 19.3 ± 2.2 µM⁻¹ | Resistance to enzymatic hydrolysis by DcpS (from C. elegans) (DcpS): hydrolyzed

m2^7,2′-OGpsppG (D1) [Compound 6a]
ΔG° (murine eIF4E (28-217)): -42.34 kJ/mol | Cap - eIF4E KAS (murine eIF4E (28-217)): 19.3 ± 1.8 | KAS (murine eIF4E (28-217)): 35.2 ± 1.1 µM⁻¹ | affinity for eIF4E (KAS) of D1 relative to D2 diastereomer (murine eIF4E (28-217)): 3 fold | affinity for eIF4E (KAS) relative to m2^7,2′-OGpppG (murine eIF4E (28-217)): 3 fold | Resistance to enzymatic hydrolysis by DcpS (from C. elegans) (DcpS): resistant

m2^7,2′-OGpsppG (D2) [Compound 6b]
ΔG° (murine eIF4E (28-217)): -39.9 kJ/mol | Cap - eIF4E KAS (murine eIF4E (28-217)): 15.4 ± 0.5 | KAS (murine eIF4E (28-217)): 12.9 ± 0.4 µM⁻¹ | Resistance to enzymatic hydrolysis by DcpS (from C. elegans) (DcpS): resistant
